In brackets after ≈: the same amount, converted by molar mass.
Experiments:
[1] = tested on: Human immunodeficiency virus 1; test: Ratio of nevirapine EC50 to compound EC50 for HIV1; assay type: functional
[2] = tested on: Human immunodeficiency virus 1; test: Antiviral activity against wild type HIV1; assay type: functional, organism-based
[3] = tested on: Human immunodeficiency virus 1; test: Antiviral activity against HIV1 harboring reverse transcriptase L100I mutant; assay type: functional, organism-based
[4] = tested on: Human immunodeficiency virus 1; test: Antiviral activity against HIV1 harboring reverse transcriptase Y188L mutant; assay type: functional, organism-based
[5] = tested on: Human immunodeficiency virus 1; test: Antiviral activity against HIV1 harboring reverse transcriptase Y181C mutant; assay type: functional, organism-based
[6] = tested on: Human immunodeficiency virus 1; test: Antiviral activity against HIV1 harboring reverse transcriptase L100I/K103N mutant; assay type: functional, organism-based
[7] = tested on: Human immunodeficiency virus 1; test: Antiviral activity against HIV1 harboring reverse transcriptase K103N/Y181C mutant; assay type: functional, organism-based
[8] = tested on: Human immunodeficiency virus 1; test: Antiviral activity against HIV1 harboring reverse transcriptase K103N mutant; assay type: functional, organism-based
[9] = tested on: Human immunodeficiency virus 1; test: Antiviral activity against HIV1 3B infected in MT4 cells; assay type: functional, organism-based; conditions: Human immunodeficiency virus 1, 3B
[10] = Selectivity index, ratio of cytotoxic concentration for human MT4 cells to IC50 for HIV1 3B; assay type: toxicity, cell-based; conditions: read-out: Selectivity Index
[11] = tested on: Human immunodeficiency virus 1; test: Antiviral activity against HIV1 3B infected in MT4 cells assessed as inhibition of virus-induced cytopathic effect after 5 days by MTT assay; assay type: functional, organism-based; conditions: Human immunodeficiency virus 1, 3B, MT4, 120 h
[12] = Half life in plasma; assay type: ADME, cell-free
[13] = tested on: Human immunodeficiency virus 1; test: Antiviral activity against HIV1 infected in MT4 cells; assay type: functional, organism-based; conditions: Human immunodeficiency virus 1, MT4
[14] = tested on: Human immunodeficiency virus 1; test: Antiviral activity against HIV1 infected in human assessed as log reduction in viral load at 800 mg administered QD for 7 days measured on day 8 relative to placebo-control; assay type: functional
[15] = tested on: Human immunodeficiency virus 1; test: Antiviral activity against HIV1 infected in human assessed as log reduction in viral load at 25 to 150 mg administered QD for 7 days measured on day 8 relative to placebo-control; assay type: functional
[16] = Half life in HIV-infected patient plasma; assay type: ADME, organism-based; conditions: human
[17] = tested on: Human immunodeficiency virus 1; test: Antiviral activity against HIV1 infected in human assessed as viral copies at 25 to 150 mg; assay type: functional
[18] = tested on: Human immunodeficiency virus 1; test: Antiviral activity against HIV1 infected in human assessed as log reduction in viral load at 500 mg administered QD for 7 days measured on day 8 relative to placebo-control; assay type: functional
[19] = tested on: Human immunodeficiency virus 1; test: Antiviral activity against HIV1 infected in human assessed as log reduction in viral load at 750 mg administered QD for 7 days measured on day 8 relative to placebo-control; assay type: functional
[20] = Half life in HIV1-infected patient; assay type: ADME, organism-based; conditions: human, in vivo

CCN1c2ncc(CCOc3cc[n+]([O-])c4ccccc34)cc2C(=O)N(C)c2cccnc21 [BILR 355]
Ratio EC50 [1]: >10
EC50 [2]: 0.00026 µg/mL (≈ 0.589 nM)

Cc1cc(C#N)cc(C)c1Oc1ccnc(Nc2ccc(C#N)cc2)n1
IC50 [3]: 73 nM
IC50 [4]: 19 nM
IC50 [5]: 37 nM
IC50 [6]: 798 nM
IC50 [7]: 94 nM
IC50 [8]: 2.7 nM
IC50 [2]: 1.1 nM

Cc1cc(C#N)cc(C)c1Oc1nc(Nc2ccc(C#N)cc2)ncc1Br
IC50 [3]: 6.6 nM
IC50 [4]: 5.9 nM
IC50 [5]: 22 nM
IC50 [6]: 49 nM
IC50 [7]: 25 nM
IC50 [8]: 1.4 nM
IC50 [2]: 1.4 nM

Cc1cn([C@H]2C[C@H](N=[N+]=[N-])[C@@H](CO)O2)c(=O)[nH]c1=O [ZIDOVUDINE]
IC50 [9]: 1.5 nM
selectivity ratio [10]: 6200

CC(=O)c1ccc(C)cc1NC(C(N)=O)c1c(Cl)cccc1Cl (centres undefined) [LOVIRIDE]
IC50 [11]: 13 nM

Cc1cc(C#N)cc(C)c1Oc1nc(Nc2ccc(C#N)cc2)nc(N)c1Br [ETRAVIRINE]
half-life [12]: 30 h
IC50 [6]: 19 nM
IC50 [7]: 4.3 nM
IC50 [2]: < 10 nM

CC(C)=CCN1Cc2cccc3[nH]c(=S)n(c23)C[C@@H]1C
IC50 [9]: 28 nM
selectivity ratio [10]: 31100

Cc1cc(S(N)(=O)=O)ccc1NC(=O)COc1ccc(Cl)cc1C(=O)c1cc(F)cc(C(F)(F)F)c1
IC50 [13]: 0.5 nM

CO[P@](=O)(c1cc(C)cc(/C=C/C#N)c1)c1c(C(N)=O)[nH]c2ccc(Cl)cc12 [FOSDEVIRINE]
FC [14]: 2.1

CCN(CC)CCOc1ccc(NC(=O)COc2ccccc2C(=O)c2ccc(OC)cc2)cc1
IC50 [13]: 10 µg/mL

Cc1cc(/C=C/C#N)cc(C)c1Nc1ccnc(Nc2ccc(C#N)cc2)n1 [RILPIVIRINE]
FC [15]: 1.199
half-life [16]: 48 h
Activity [17]: <50 mL⁻¹

CCc1nn(CCO)c(CC)c1Oc1cc(C#N)cc(C#N)c1 [LERSIVIRINE]
FC [18]: 1.9
FC [19]: 2

O=C(CSc1nnc(Br)n1-c1ccc(C2CC2)c2ccccc12)Nc1ccc(C(=O)[O-])cc1Cl.[K+]
half-life [20]: 11 h
